{
  "source": "patent US10597388B2",
  "about": "“Pyridazinone herbicides” (FMC CORPORATION, priority 2014, dated 2020)",
  "assay_in_all_cases": "Test E greenhouse herbicide test, pre- and postemergence",
  "assay_type_in_all_cases": "in vivo",
  "conditions_in_all_cases": "Preemergence",
  "key": {"[1]": {"tested_on": "lambsquarters (Chenopodium album)", "outline": "(§1)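 Visual rating vs untreated controls, 0 = no effect, 100 = complete control, after 14–21 d greenhouse. Pre: seeded silt loam treated with surfactant-containing solvent formulation. Post: 1–4-leaf plants (2–18 cm) in peat/vermiculite medium.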"}, "kochia (Kochia scoparia)": {"tested_on": "kochia (Kochia scoparia)", "outline": "as §1"}, "[2]": {"tested_on": "nightshade (eastern black nightshade, Solanum ptycanthum)", "outline": "as §1"}, "[3]": {"tested_on": "panicum, fall (fall panicum, Panicum dichotomiflorum)", "outline": "as §1"}, "[4]": {"tested_on": "foxtail, green (green foxtail, Setaria viridis)", "outline": "as §1"}, "[5]": {"tested_on": "sandbur (southem sandbur, Cenchrus echinatus)", "outline": "as §1"}, "[6]": {"tested_on": "crabgrass, large (large crabgrass, Digitaria sanguinalis)", "outline": "as §1"}, "[7]": {"tested_on": "Italian ryegrass (Lolium multiflorum)", "outline": "as §1"}, "corn (Zea mays)": {"tested_on": "corn (Zea mays)", "outline": "as §1"}, "[8]": {"tested_on": "goosegrass (Eleusine indica)", "outline": "as §1"}, "[9]": {"tested_on": "surinam grass (Brachiaria decumbens)", "outline": "as §1"}, "[10]": {"tested_on": "crabgrass, Brazilian (Brazilian crabgrass, Digitaria horizontalis)", "outline": "as §1"}, "[11]": {"tested_on": "foxtail, giant (giant foxtail, Setaria faberii)", "outline": "as §1"}, "[12]": {"tested_on": "velvetleaf (Abutilon theophrasti)", "outline": "as §1"}, "[13]": {"tested_on": "arrowleaf sida (Sida rhombifolia)", "outline": "as §1"}, "[14]": {"tested_on": "barnyardgrass (Echinochloa crus-galli)", "outline": "as §1"}, "[15]": {"tested_on": "horseweed (Conyza canadensis)", "outline": "as §1"}, "[16]": {"conditions": "62 g ai/ha, scale 0 to 100 (0 no effect, 100 complete control)"}, "[17]": {"conditions": "31 g ai/ha, scale 0 to 100, 0 no effect, 100 complete control"}, "[18]": {"conditions": "125 g ai/ha, visual, scale 0 no effect to 100 complete control"}, "[19]": {"conditions": "250 g ai/ha, visual, scale 0 no effect to 100 complete control"}, "[20]": {"conditions": "125 g ai/ha, scale 0 to 100 (0 no effect, 100 complete control)"}},
  "data": [
    {"smiles": "CC(=O)Oc1c(C)nn(C)c(=O)c1-c1c(C)sc2c(C)cc(C)cc12", "note": "[Compound 27]", "values": [
      {"measurement": "Plant response rating, Lambsquarters", "setting": "[1]; [16]", "result": 100},
      {"measurement": "Plant response rating, Lambsquarters", "setting": "[1]; [17]", "result": 100},
      {"measurement": "Plant response rating, Lambsquarters", "setting": "[1]; [18]", "result": 100},
      {"measurement": "Plant response rating, Lambsquarters", "setting": "[1]; [19]", "result": 100},
      {"measurement": "Plant response rating, Kochia", "setting": "kochia (Kochia scoparia); [16]", "result": 25},
      {"measurement": "Plant response rating, Kochia", "setting": "kochia (Kochia scoparia); [17]", "result": 0},
      {"measurement": "Plant response rating, Kochia", "setting": "kochia (Kochia scoparia); [18]", "result": 80},
      {"measurement": "Plant response rating, Kochia", "setting": "kochia (Kochia scoparia); [19]", "result": 100},
      {"measurement": "Plant response rating, Nightshade", "setting": "[2]; [16]", "result": 100},
      {"measurement": "Plant response rating, Nightshade", "setting": "[2]; [20]", "result": 95},
      {"measurement": "Plant response rating, Nightshade", "setting": "[2]; [17]", "result": 90},
      {"measurement": "Plant response rating, Nightshade", "setting": "[2]; [19]", "result": 98},
      {"measurement": "Plant response rating, Panicum, Fall", "setting": "[3]; [16]", "result": 100},
      {"measurement": "Plant response rating, Panicum, Fall", "setting": "[3]; [20]", "result": 100},
      {"measurement": "Plant response rating, Panicum, Fall", "setting": "[3]; [17]", "result": 100},
      {"measurement": "Plant response rating, Panicum, Fall", "setting": "[3]; [19]", "result": 100},
      {"measurement": "Plant response rating, Foxtail, Green", "setting": "[4]; [16]", "result": 100},
      {"measurement": "Plant response rating, Foxtail, Green", "setting": "[4]; [17]", "result": 75},
      {"measurement": "Plant response rating, Foxtail, Green", "setting": "[4]; [18]", "result": 100},
      {"measurement": "Plant response rating, Foxtail, Green", "setting": "[4]; [19]", "result": 100},
      {"measurement": "Plant response rating, Sandbur", "setting": "[5]; [16]", "result": 40},
      {"measurement": "Plant response rating, Sandbur", "setting": "[5]; [20]", "result": 90},
      {"measurement": "Plant response rating, Sandbur", "setting": "[5]; [17]", "result": 30},
      {"measurement": "Plant response rating, Sandbur", "setting": "[5]; [19]", "result": 90},
      {"measurement": "Plant response rating, Crabgrass, Large", "setting": "[6]; [16]", "result": 50},
      {"measurement": "Plant response rating, Crabgrass, Large", "setting": "[6]; [17]", "result": 35},
      {"measurement": "Plant response rating, Crabgrass, Large", "setting": "[6]; [18]", "result": 50},
      {"measurement": "Plant response rating, Crabgrass, Large", "setting": "[6]; [19]", "result": 90},
      {"measurement": "Plant response rating, Ryegrass, Italian", "setting": "[7]; [16]", "result": 95},
      {"measurement": "Plant response rating, Ryegrass, Italian", "setting": "[7]; [20]", "result": 100},
      {"measurement": "Plant response rating, Ryegrass, Italian", "setting": "[7]; [17]", "result": 80},
      {"measurement": "Plant response rating, Ryegrass, Italian", "setting": "[7]; [19]", "result": 100},
      {"measurement": "Plant response rating, Corn", "setting": "corn (Zea mays); [16]", "result": 0},
      {"measurement": "Plant response rating, Corn", "setting": "corn (Zea mays); [17]", "result": 0},
      {"measurement": "Plant response rating, Corn", "setting": "corn (Zea mays); [18]", "result": 0},
      {"measurement": "Plant response rating, Corn", "setting": "corn (Zea mays); [19]", "result": 0},
      {"measurement": "Plant response rating, Goosegrass", "setting": "[8]; [16]", "result": 75},
      {"measurement": "Plant response rating, Goosegrass", "setting": "[8]; [17]", "result": 35},
      {"measurement": "Plant response rating, Goosegrass", "setting": "[8]; [18]", "result": 80},
      {"measurement": "Plant response rating, Goosegrass", "setting": "[8]; [19]", "result": 85},
      {"measurement": "Plant response rating, Surinam Grass", "setting": "[9]; [16]", "result": 95},
      {"measurement": "Plant response rating, Surinam Grass", "setting": "[9]; [20]", "result": 100},
      {"measurement": "Plant response rating, Surinam Grass", "setting": "[9]; [17]", "result": 85},
      {"measurement": "Plant response rating, Surinam Grass", "setting": "[9]; [19]", "result": 100},
      {"measurement": "Plant response rating, Crabgrass, Brazil", "setting": "[10]; [16]", "result": 70},
      {"measurement": "Plant response rating, Crabgrass, Brazil", "setting": "[10]; [17]", "result": 70},
      {"measurement": "Plant response rating, Crabgrass, Brazil", "setting": "[10]; [18]", "result": 95},
      {"measurement": "Plant response rating, Crabgrass, Brazil", "setting": "[10]; [19]", "result": 95},
      {"measurement": "Plant response rating, Foxtail, Giant", "setting": "[11]; [16]", "result": 98},
      {"measurement": "Plant response rating, Foxtail, Giant", "setting": "[11]; [17]", "result": 95},
      {"measurement": "Plant response rating, Foxtail, Giant", "setting": "[11]; [18]", "result": 100},
      {"measurement": "Plant response rating, Foxtail, Giant", "setting": "[11]; [19]", "result": 100},
      {"measurement": "Plant response rating, Velvetleaf", "setting": "[12]; [16]", "result": 80},
      {"measurement": "Plant response rating, Velvetleaf", "setting": "[12]; [20]", "result": 95},
      {"measurement": "Plant response rating, Velvetleaf", "setting": "[12]; [17]", "result": 50},
      {"measurement": "Plant response rating, Velvetleaf", "setting": "[12]; [19]", "result": 100},
      {"measurement": "Plant response rating, Arrowleaf Sida", "setting": "[13]; [16]", "result": 65},
      {"measurement": "Plant response rating, Arrowleaf Sida", "setting": "[13]; [17]", "result": 40},
      {"measurement": "Plant response rating, Arrowleaf Sida", "setting": "[13]; [18]", "result": 75},
      {"measurement": "Plant response rating, Arrowleaf Sida", "setting": "[13]; [19]", "result": 35},
      {"measurement": "Plant response rating, Barnyardgrass", "setting": "[14]; [16]", "result": 50},
      {"measurement": "Plant response rating, Barnyardgrass", "setting": "[14]; [17]", "result": 15},
      {"measurement": "Plant response rating, Barnyardgrass", "setting": "[14]; [18]", "result": 80},
      {"measurement": "Plant response rating, Barnyardgrass", "setting": "[14]; [19]", "result": 95},
      {"measurement": "Plant response rating, Horseweed", "setting": "[15]; [16]", "result": 100},
      {"measurement": "Plant response rating, Horseweed", "setting": "[15]; [17]", "result": 100},
      {"measurement": "Plant response rating, Horseweed", "setting": "[15]; [18]", "result": 100},
      {"measurement": "Plant response rating, Horseweed", "setting": "[15]; [19]", "result": 100}
    ]}
  ]
}
